Read-outs that look alike come from different tables or passages of the source.
How the values were obtained:
Assay in all cases: biochemical
Type in all cases: binding
panel of 442 kinases [1] = target: T1, panel of 442 kinases (Homo sapiens, UniProt O15146); conditions: kinase MUSK; for remaining activity at 1 µM: read-out: % of control at 1 µM
T1 construct: purchased Ambit Biosciences (scanMAXX KINOMEscan)
T1 sequence (O15146 24-869): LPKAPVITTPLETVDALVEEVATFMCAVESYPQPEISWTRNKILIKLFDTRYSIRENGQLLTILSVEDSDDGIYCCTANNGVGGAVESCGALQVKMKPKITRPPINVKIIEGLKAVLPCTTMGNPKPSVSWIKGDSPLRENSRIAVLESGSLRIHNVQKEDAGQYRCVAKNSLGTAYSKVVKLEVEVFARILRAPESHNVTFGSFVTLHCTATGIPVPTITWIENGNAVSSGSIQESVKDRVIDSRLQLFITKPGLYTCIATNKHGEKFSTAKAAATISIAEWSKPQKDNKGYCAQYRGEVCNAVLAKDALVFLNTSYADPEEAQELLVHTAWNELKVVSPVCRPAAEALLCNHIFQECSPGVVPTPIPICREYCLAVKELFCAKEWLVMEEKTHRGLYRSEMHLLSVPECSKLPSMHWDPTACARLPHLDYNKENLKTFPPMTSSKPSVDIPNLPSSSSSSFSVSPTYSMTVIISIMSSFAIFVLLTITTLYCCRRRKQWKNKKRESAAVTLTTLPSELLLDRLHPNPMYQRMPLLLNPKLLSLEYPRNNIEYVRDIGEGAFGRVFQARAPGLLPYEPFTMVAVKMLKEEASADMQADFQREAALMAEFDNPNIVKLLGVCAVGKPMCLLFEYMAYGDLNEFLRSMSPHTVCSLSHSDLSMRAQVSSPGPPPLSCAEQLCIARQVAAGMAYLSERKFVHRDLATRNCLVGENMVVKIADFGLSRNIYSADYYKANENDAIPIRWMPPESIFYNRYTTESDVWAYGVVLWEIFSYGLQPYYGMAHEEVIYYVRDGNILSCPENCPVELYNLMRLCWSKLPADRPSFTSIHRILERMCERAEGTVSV

panel of 442 kinases [2] = target: T2, panel of 442 kinases (Homo sapiens, UniProt P14616); conditions: kinase INSRR; for remaining activity at 1 µM: read-out: % of control at 1 µM
T2 construct: purchased Ambit Biosciences (scanMAXX KINOMEscan)

panel of 442 kinases [3] = target: T3, panel of 442 kinases (Homo sapiens, UniProt P24941); conditions: CDK2; for remaining activity at 1 µM: read-out: % of control at 1 µM
T3 construct: purchased Ambit Biosciences (scanMAXX KINOMEscan)

panel of 442 kinases [4] = target: T4, panel of 442 kinases (Homo sapiens, UniProt P42681); conditions: kinase TXK; for remaining activity at 1 µM: read-out: TXK (% of control at 1 µM)
T4 construct: purchased Ambit Biosciences (scanMAXX KINOMEscan)
T4 sequence (P42681 1-527): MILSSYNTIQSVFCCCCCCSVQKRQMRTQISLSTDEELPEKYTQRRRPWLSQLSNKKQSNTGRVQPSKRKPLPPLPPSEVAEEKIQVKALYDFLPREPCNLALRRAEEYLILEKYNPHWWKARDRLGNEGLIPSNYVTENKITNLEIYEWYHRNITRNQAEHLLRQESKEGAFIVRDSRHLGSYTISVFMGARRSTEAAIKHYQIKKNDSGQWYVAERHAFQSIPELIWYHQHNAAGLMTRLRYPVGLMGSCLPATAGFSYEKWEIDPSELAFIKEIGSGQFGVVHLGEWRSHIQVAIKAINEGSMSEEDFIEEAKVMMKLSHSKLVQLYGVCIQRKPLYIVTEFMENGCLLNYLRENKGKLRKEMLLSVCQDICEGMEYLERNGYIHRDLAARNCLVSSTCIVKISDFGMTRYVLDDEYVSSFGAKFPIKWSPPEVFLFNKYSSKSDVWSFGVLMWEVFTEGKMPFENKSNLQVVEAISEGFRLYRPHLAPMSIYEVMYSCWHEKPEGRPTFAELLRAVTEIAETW

panel of 442 kinases [5] = target: T5, panel of 442 kinases (Homo sapiens, UniProt P45983); conditions: kinase JNK1; for remaining activity at 1 µM: read-out: % of control at 1 µM
T5 construct: purchased Ambit Biosciences (scanMAXX KINOMEscan)

panel of 442 kinases [6] = target: T6, panel of 442 kinases (Homo sapiens, UniProt Q13164); conditions: ERK5; for remaining activity at 1 µM: read-out: % of control at 1 µM
T6 construct: purchased Ambit Biosciences (scanMAXX KINOMEscan)

panel of 442 kinases [7] = target: T7, panel of 442 kinases (Homo sapiens, UniProt Q14004); conditions: for remaining activity at 1 µM: read-out: % of control at 1 µM; for remaining activity at 10 µM: read-out: % of control at 10 µM
T7 construct: purchased Ambit Biosciences (scanMAXX KINOMEscan)

panel of 442 kinases [8] = target: T8, panel of 442 kinases (Homo sapiens, UniProt Q9BZL6); conditions: kinase PRKD2; for remaining activity at 1 µM: read-out: PRKD2 (% of control at 1 µM)
T8 construct: purchased Ambit Biosciences (scanMAXX KINOMEscan)
T8 sequence (Q9BZL6 1-878): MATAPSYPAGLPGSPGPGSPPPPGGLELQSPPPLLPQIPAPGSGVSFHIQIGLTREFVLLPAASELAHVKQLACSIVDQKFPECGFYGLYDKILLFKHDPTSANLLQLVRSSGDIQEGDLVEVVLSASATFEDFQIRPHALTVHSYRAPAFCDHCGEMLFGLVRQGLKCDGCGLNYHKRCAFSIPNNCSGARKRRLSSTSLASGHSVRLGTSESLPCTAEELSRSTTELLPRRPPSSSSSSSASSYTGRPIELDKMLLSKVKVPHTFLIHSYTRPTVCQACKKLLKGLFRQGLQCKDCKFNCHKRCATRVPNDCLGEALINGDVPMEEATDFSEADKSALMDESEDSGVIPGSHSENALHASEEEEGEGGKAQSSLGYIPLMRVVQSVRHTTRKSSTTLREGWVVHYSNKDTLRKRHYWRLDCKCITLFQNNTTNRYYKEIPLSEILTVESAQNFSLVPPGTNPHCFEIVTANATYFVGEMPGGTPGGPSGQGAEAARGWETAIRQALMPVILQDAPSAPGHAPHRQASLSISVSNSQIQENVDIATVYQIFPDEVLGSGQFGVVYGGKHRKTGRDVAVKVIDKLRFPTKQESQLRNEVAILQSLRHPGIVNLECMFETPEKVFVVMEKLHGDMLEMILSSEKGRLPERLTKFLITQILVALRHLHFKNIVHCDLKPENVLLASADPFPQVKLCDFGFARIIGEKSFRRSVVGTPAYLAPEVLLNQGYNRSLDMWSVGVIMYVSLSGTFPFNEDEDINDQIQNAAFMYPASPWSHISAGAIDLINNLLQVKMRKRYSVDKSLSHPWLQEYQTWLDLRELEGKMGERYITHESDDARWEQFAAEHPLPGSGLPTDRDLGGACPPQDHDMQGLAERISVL

[9] = 10 µM, read-out: % of control at 10 µM

T6 sequence (Q13164 whole entry): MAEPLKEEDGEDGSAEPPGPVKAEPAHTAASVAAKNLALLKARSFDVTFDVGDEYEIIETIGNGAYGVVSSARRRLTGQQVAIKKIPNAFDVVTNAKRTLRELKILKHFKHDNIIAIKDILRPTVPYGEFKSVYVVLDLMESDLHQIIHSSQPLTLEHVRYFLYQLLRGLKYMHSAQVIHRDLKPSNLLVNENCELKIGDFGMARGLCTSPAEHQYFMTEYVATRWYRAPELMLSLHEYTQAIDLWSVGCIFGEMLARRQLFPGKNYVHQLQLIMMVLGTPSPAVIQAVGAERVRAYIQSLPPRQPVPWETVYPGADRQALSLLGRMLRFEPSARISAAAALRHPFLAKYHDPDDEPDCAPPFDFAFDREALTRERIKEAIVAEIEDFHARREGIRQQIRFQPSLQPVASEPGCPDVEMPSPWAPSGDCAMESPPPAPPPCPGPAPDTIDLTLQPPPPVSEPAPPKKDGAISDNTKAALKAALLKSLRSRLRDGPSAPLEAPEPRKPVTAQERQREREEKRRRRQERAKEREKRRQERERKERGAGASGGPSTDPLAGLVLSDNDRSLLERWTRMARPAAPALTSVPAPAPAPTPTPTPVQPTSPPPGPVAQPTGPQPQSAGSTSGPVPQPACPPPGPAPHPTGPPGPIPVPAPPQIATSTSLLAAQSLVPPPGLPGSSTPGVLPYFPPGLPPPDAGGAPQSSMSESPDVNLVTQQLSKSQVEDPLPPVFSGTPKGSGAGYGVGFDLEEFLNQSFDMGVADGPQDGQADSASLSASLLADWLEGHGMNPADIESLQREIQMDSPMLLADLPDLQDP
T2 sequence (P14616 27-1297): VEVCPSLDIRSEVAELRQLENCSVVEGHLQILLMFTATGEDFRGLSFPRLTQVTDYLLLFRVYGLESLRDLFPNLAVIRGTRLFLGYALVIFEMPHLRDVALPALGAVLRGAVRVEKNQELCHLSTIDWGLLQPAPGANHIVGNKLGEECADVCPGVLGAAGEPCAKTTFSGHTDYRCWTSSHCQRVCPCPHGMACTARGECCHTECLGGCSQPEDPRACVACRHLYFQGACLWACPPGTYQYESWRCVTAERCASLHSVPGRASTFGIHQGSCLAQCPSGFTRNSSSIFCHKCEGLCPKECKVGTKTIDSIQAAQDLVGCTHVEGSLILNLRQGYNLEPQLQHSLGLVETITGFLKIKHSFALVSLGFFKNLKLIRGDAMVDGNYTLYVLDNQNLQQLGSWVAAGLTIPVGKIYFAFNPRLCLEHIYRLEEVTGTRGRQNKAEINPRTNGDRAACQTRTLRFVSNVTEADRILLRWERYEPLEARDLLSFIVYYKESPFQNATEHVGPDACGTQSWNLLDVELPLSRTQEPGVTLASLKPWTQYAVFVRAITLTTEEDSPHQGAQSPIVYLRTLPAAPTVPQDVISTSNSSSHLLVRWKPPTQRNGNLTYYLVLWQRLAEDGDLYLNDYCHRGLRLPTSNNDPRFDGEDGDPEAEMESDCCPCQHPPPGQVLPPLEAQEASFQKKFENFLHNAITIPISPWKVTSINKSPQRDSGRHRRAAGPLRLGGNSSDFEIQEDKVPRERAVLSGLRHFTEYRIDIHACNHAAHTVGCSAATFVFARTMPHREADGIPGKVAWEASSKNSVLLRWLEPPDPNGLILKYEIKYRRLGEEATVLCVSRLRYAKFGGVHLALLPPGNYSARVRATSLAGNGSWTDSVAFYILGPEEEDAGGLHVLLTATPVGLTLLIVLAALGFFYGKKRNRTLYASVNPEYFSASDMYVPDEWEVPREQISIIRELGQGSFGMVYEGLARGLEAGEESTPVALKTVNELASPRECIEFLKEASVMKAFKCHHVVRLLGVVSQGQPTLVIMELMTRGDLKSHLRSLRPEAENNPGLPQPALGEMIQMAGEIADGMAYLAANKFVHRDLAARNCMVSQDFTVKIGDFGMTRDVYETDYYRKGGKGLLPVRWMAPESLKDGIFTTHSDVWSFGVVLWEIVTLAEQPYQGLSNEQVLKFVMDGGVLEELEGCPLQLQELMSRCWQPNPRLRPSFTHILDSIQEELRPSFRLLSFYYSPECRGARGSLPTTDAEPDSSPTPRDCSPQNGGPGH
T7 sequence (Q14004 whole entry): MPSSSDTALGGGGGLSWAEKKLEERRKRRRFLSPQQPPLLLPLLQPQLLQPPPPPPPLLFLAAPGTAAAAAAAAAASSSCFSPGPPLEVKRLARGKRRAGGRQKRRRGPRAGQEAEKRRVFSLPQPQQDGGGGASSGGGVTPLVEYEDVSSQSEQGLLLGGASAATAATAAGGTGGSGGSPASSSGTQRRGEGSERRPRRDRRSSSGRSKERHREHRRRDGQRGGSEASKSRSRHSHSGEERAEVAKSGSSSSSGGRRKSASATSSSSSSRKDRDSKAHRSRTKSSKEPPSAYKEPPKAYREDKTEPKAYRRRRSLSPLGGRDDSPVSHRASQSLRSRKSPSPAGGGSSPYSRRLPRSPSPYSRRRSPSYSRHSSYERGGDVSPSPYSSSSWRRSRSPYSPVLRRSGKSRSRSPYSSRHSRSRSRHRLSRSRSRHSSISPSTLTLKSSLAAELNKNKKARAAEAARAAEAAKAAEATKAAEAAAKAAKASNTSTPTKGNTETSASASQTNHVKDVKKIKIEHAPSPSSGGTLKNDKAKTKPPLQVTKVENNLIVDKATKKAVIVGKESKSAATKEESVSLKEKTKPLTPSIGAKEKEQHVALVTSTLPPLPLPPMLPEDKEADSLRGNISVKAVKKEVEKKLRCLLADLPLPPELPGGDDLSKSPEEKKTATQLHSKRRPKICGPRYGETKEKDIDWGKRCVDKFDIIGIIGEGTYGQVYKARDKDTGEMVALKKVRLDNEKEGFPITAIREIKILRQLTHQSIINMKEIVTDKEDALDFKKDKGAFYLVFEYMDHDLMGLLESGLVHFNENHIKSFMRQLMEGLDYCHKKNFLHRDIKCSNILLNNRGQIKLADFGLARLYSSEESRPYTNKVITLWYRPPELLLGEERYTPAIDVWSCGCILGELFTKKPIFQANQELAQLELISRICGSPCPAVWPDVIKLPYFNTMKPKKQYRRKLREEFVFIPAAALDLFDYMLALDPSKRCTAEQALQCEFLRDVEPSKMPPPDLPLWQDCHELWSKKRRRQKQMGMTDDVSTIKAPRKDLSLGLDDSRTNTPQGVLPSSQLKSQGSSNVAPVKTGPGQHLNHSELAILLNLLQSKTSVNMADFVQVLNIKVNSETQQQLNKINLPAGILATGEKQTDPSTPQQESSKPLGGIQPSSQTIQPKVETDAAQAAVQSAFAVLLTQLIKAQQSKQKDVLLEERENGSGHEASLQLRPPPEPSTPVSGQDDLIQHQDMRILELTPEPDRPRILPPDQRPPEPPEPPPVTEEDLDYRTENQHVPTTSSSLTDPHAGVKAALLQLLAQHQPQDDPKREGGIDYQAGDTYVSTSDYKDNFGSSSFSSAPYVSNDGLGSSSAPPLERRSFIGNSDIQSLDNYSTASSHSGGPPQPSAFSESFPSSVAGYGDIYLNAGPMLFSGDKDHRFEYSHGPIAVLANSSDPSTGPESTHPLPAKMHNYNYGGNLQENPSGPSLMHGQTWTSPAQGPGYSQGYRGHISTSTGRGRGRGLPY
T5 sequence (P45983 whole entry): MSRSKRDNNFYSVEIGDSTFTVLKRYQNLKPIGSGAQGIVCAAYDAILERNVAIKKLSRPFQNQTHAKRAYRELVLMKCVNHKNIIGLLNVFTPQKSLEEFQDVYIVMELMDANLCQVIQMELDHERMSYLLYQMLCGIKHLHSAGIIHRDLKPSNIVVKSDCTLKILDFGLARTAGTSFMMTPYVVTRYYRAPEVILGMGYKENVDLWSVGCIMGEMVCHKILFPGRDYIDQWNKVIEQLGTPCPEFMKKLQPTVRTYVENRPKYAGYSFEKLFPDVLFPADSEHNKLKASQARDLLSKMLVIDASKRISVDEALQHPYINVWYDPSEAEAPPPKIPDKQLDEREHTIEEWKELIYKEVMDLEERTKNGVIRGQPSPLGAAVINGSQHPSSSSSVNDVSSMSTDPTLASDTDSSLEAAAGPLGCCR

Structure (SMILES)	remaining activity at 1 µM (panel of 442 kinases [1]) [%]	remaining activity at 10 µM (panel of 442 kinases [1]; [9]) [%]	remaining activity at 1 µM (panel of 442 kinases [2]) [%]	remaining activity at 10 µM (panel of 442 kinases [2]; [9]) [%]	remaining activity at 1 µM (panel of 442 kinases [3]) [%]	remaining activity at 10 µM (panel of 442 kinases [3]; [9]) [%]	remaining activity at 1 µM (panel of 442 kinases [4]) [%]	remaining activity at 10 µM (panel of 442 kinases [4]; 10 µM, read-out: TXK (% of control at 10 µM)) [%]	remaining activity at 1 µM (panel of 442 kinases [5]) [%]	remaining activity at 10 µM (panel of 442 kinases [5]; [9]) [%]	remaining activity at 1 µM (panel of 442 kinases [6]) [%]	remaining activity at 10 µM (panel of 442 kinases [6]; [9]) [%]	remaining activity at 1 µM (panel of 442 kinases [7]; CDC2L5, 1 µM) [%]	remaining activity at 10 µM (panel of 442 kinases [7]; CDC2L5) [%]	remaining activity at 1 µM (panel of 442 kinases [8]) [%]	remaining activity at 10 µM (panel of 442 kinases [8]; 10 µM, read-out: PRKD2 (% of control at 10 µM)) [%]	remaining activity at 1 µM (panel of 442 kinases [7]) [%]
Nc1cc(C(F)(F)F)c(-c2cc(N3CCOCC3)nc(N3CCOCC3)n2)cn1 [Buparlisib]	86	55	100	100	84	100	98	89	98	100	84	100	75	100	100	100	–
Cn1c(=O)n(-c2ccc(C(C)(C)C#N)cc2)c2c3cc(-c4cnc5ccccc5c4)ccc3ncc21 [Dactolisib, 2-methyl-2-[4-(3-methyl-2-oxo-8-quinolin-3-yl-2,3-dihydroimidazo[4,5-c]quinolin-1-yl)-phenyl] propionitrile]	100	–	100	–	78	–	100	–	84	–	–	–	87	–	93	–	–
COc1ncc(-c2ccc3nccc(-c4ccnnc4)c3c2)cc1NS(=O)(=O)c1ccc(F)cc1F [Omipalisib]	100	–	93	–	100	–	82	–	100	–	87	–	100	–	100	–	–
CS(=O)(=O)N1CCN(Cc2cc3nc(-c4cccc5[nH]ncc45)nc(N4CCOCC4)c3s2)CC1 [Pictilisib, 2-(1H-indazol-4-yl)-6-(4-methanesulfonyl-piperazin-1-ylmethyl)-4-morpholin-4-yl-t hieno[3,2-d]pyrimidine]	–	–	–	–	–	–	–	–	–	–	–	–	70	100	–	–	–
FC(F)c1nc2ccccc2n1-c1nc(N2CCOCC2)nc(N2CCOCC2)n1 [ZSTK474, 2-(difluoromethyl)-1-[4,6-di(4-morpholinyl)-1,3,5-triazin-2-yl]-1H-benzimidazole]	100	–	88	–	74	–	83	–	86	–	97	–	–	–	93	–	100
